Assay results: the NIST ThermoML archive (doi:10.1021/acs.jced.7b00135)
Values joined by “and” are separate entries in the source; they are usually repeats but may differ in a detail not shown here. Equal entries are not always repeated.

Tests used:
[1] = wn = mass fraction of the nth substance listed; conditions: 100 kPa, Liquid; for viscosity: Capillary tube (Ostwald / Ubbelohde) method; for mass density: Vibrating tube method
[2] = Liquid, Closed cell (Static) method

O=S(=O)([N-]S(=O)(=O)C(F)(F)F)C(F)(F)F.[Li+] [lithium bis((trifluoromethyl)sulfonyl)amide] + O
[1]
Conditions | mass density, 298.15 K [kg/m3] | mass density, 323.15 K [kg/m3] | mass density, 348.15 K [kg/m3] | mass density, 373.15 K [kg/m3] | viscosity, 298.15 K [mPa·s] | viscosity, 323.15 K [mPa·s] | viscosity, 348.15 K [mPa·s] | viscosity, 373.15 K [mPa·s]
w1 = 0.2739 | 1160 | 1148 | 1131 | 1109 | 1.54 | 0.88 | 0.59 | 0.48
w1 = 0.4871 | 1325 | 1304 | 1282 | 1258 | 2.74 | 1.5 | 1 | 0.68
w1 = 0.6633 | 1493 | 1467 | 1440 | 1401 | 5.34 | 2.83 | 1.82 | 1.54
w1 = 0.8024 | 1654 | 1624 | 1598 | 1557 | 18.23 | 8.75 | 5.2 | 3.42

O [water]
[2]
Conditions | vapor or sublimation pressure
274.15 K | 0.661 kPa and 0.657 kPa
278.15 K | 0.873 kPa
279.48 K | 0.953 kPa
283.15 K | 1.228 kPa
286.16 K | 1.508 kPa
291.39 K | 2.094 kPa
293.14 K | 2.337 kPa
293.15 K | 2.339 kPa
296.31 K | 2.839 kPa
296.32 K | 2.834 kPa
298.81 K | 3.288 kPa
301.37 K | 3.827 kPa
303.15 K | 4.247 kPa
303.57 K | 4.36 kPa
307.73 K | 5.507 kPa
308.26 K | 5.666 kPa
312.87 K | 7.275 kPa
313.07 K | 7.345 kPa
313.15 K | 7.385 kPa
314.62 K | 7.977 kPa
318.13 K | 9.585 kPa and 9.578 kPa
322.99 K | 12.26 kPa
323.1 K | 12.32 kPa
323.15 K | 12.35 kPa
323.17 K | 12.36 kPa
328.14 K | 15.75 kPa
328.88 K | 16.31 kPa
333.15 K | 20.06 kPa and 19.95 kPa
343.15 K | 31.28 kPa and 31.2 kPa
353.15 K | 47.45 kPa and 47.41 kPa
363.15 K | 70.21 kPa and 70.18 kPa
373.15 K | 101.42 kPa and 101.42 kPa
383.15 K | 143.29 kPa and 143.38 kPa
393.15 K | 198.75 kPa and 198.67 kPa
403.15 K | 270.22 kPa and 270.28 kPa
413.15 K | 361.64 kPa and 361.54 kPa
423.15 K | 476.33 kPa and 476.17 kPa
433.15 K | 618.34 kPa and 618.24 kPa
443.15 K | 792.15 kPa and 792.19 kPa
453.15 K | 1002.7 kPa and 1002.8 kPa
463.15 K | 1255.2 kPa and 1255.2 kPa
468.15 K | 1398.9 kPa
470.15 K | 1459.7 kPa
471.15 K | 1491 kPa and 1490.9 kPa
